Data taken from ChEMBL document CHEMBL1649223, “Efficacy of albaconazole against Candida albicans in a vaginitis model” (2009).
≈ marks a conversion by molar mass, not a printed value.

Columns and labels:
Assay type in all cases: functional
[1] = test system: Candida albicans; assay: Antifungal activity against Candida albicans isolate 03-2718 infected BALB/c mouse vaginitis model assessed as reduction in fungal load in vagina at 20 mg/kg, administered through oral gavage once daily for 5 days measured on day 6 post inoculation
[2] = test system: Candida albicans; assay: Antifungal activity against Candida albicans isolate 03-2718 infected BALB/c mouse vaginitis model assessed as reduction in fungal load in vagina at 20 mg/kg, administered through oral gavage twice daily for 5 days measured on day 1 post inoculation
[3] = test system: Candida albicans; assay: Antifungal activity against Candida albicans isolate 03-2718 infected BALB/c mouse vaginitis model assessed as reduction in fungal load in vagina at 20 mg/kg, administered through oral gavage once daily for 5 days measured on day 1 post inoculation
[4] = test system: Candida albicans; assay: Antifungal activity against Candida albicans isolate 03-2718 infected BALB/c mouse vaginitis model assessed as reduction in fungal load in vagina at 20 mg/kg, administered through oral gavage twice daily for 5 days measured on day 6 post inoculation
[5] = test system: Candida albicans; assay: Antifungal activity against Candida albicans isolate 03-2718 infected BALB/c mouse vaginitis model assessed as reduction in fungal load in vagina at 10 mg/kg, administered through oral gavage twice daily for 5 days measured on day 6 post inoculation
[6] = test system: Candida albicans; assay: Antifungal activity against Candida albicans isolate 03-2718 infected BALB/c mouse vaginitis model assessed as reduction in fungal load in vagina at 40 mg/kg, administered through oral gavage once daily for 5 days measured on day 1 post inoculation
[7] = test system: Candida albicans; assay: Antifungal activity against Candida albicans isolate 03-2718 infected BALB/c mouse vaginitis model assessed as reduction in fungal load in vagina at 10 mg/kg, administered through oral gavage once daily for 5 days measured on day 1 post inoculation
[8] = test system: Candida albicans; assay: Antifungal activity against Candida albicans isolate 03-2718 infected BALB/c mouse vaginitis model assessed as reduction in fungal load in vagina at 5 mg/kg, administered through oral gavage once daily for 5 days measured on day 1 post inoculation
[9] = test system: Candida albicans; assay: Antifungal activity against Candida albicans isolate 03-2718 after 48 hrs; conditions: isolate 03-2718, 48 h
[10] = test system: Candida albicans; assay: Antifungal activity against Candida albicans isolate 03-2718 infected BALB/c mouse vaginitis model assessed as reduction in fungal load in vagina at 10 mg/kg, administered through oral gavage once daily for 5 days measured on day 6 post inoculation
[11] = test system: Candida albicans; assay: Antifungal activity against Candida albicans isolate 03-2718 infected BALB/c mouse vaginitis model assessed as reduction in fungal load in vagina at 40 mg/kg, administered through oral gavage once daily for 5 days measured on day 6 post inoculation
[12] = test system: Candida albicans; assay: Antifungal activity against Candida albicans isolate 03-2718 infected BALB/c mouse vaginitis model assessed as reduction in fungal load in vagina at 40 mg/kg, administered through oral gavage twice daily for 5 days measured on day 6 post inoculation
[13] = test system: Candida albicans; assay: Antifungal activity against Candida albicans isolate 03-2718 infected BALB/c mouse vaginitis model assessed as reduction in fungal load in vagina at 40 mg/kg, administered through oral gavage twice daily for 5 days measured on day 1 post inoculation
[14] = test system: Candida albicans; assay: Antifungal activity against Candida albicans isolate 03-2718 infected BALB/c mouse vaginitis model assessed as reduction in fungal load in vagina at 5 mg/kg, administered through oral gavage twice daily for 5 days measured on day 6 post inoculation
[15] = test system: Candida albicans; assay: Antifungal activity against Candida albicans isolate 03-2718 infected BALB/c mouse vaginitis model assessed as reduction in fungal load in vagina at 10 mg/kg, administered through oral gavage twice daily for 5 days measured on day 1 post inoculation
[16] = test system: Candida albicans; assay: Antifungal activity against Candida albicans isolate 03-2718 infected BALB/c mouse vaginitis model assessed as reduction in fungal load in vagina at 5 mg/kg, administered through oral gavage twice daily for 5 days measured on day 1 post inoculation
[17] = test system: Candida albicans; assay: Antifungal activity against Candida albicans isolate 03-2718 infected BALB/c mouse vaginitis model assessed as reduction in fungal load in vagina at 5 mg/kg, administered through oral gavage once daily for 5 days measured on day 6 post inoculation

`OC(Cn1cncn1)(Cn1cncn1)c1ccc(F)cc1F` [FLUCONAZOLE] was tested, and the log10cfu [1] was 4.51, the log10cfu [2] was 5.9 and the log10cfu [3] was 5.51. The log10cfu [4] was 3.74.

With `C[C@@H](n1cnc2cc(Cl)ccc2c1=O)[C@](O)(Cn1cncn1)c1ccc(F)cc1F` [ALBACONAZOLE] the log10cfu [5] was 3.83, the log10cfu [6] was 5.62 and the log10cfu [7] was 5.07. It also gave a log10cfu [8] of 5.06, a log10cfu [1] of 3.81 and an MIC [9] of 0.5 µg/mL (≈ 1.16 µM). For the same compound, the log10cfu [10] was 4.33, the log10cfu [11] was 3.13 and the log10cfu [12] was 2.24. The log10cfu [2] was 5.48, the log10cfu [3] was 5.13 and the log10cfu [13] was 5.79. For the same compound, the log10cfu [14] was 4.82, the log10cfu [15] was 5.43 and the log10cfu [16] was 5.46. For the same compound, the log10cfu [4] was 3.34 and the log10cfu [17] was 4.99.
